Results published in patent US20220257706A1, “EPIDERMAL GROWTH FACTOR RECEPTOR (EGFR) LIGANDS” (NANYANG TECHNOLOGICAL UNIVERSITY, priority 2019, published 2022).
Like-named read-outs stand apart in the source and are kept apart here.

Key:
HaCaT cells [1] = type: cell-based, human; settings: for mitogenic effect compared with bleogen pB1: 1 μM, crystal violet assay; for EGFR dependence of proliferative/mitogenic effect: co-incubation with EGFR neutralizing antibody (clone LA1)
Protocol: HaCaT (human keratinocyte), HUVEC-CS (endothelial cells) cells were cultured in Dulbecco's modification of Eagle's medium (DMEM) supplemented with 10% fetal bovine serum and 100 U/mL of penicillin and streptomycin. Normal Human Epidermal Keratinocytes adult purchased from Lifeline® cell technology were cultured in Lifeline® DermaLife K Medium. They were grown in a 5% CO2 humidified incubator at 37° C. HaCaT cells were stably transfected with pGL4.33[luc2P/SRE/Hygro] (Promega) and selected using 250 μg/mL hygromycin. Stable HaCaT cells expressing SRE luciferase reporter were maintained with 250 μg/mL hygromycin.
Cell proliferation was determined using crystal violet staining. […] 3417-Da-peptide aB1 is a CRP isolated from Achyranthes bidentata with the amino acid sequence […] (SEQ ID NO:11). Crystal violet staining was performed as previously described. Briefly, after the incubation period, the wells were fixed with 4% buffered paraformaldehyde for 20 min. The cells were then stained with 0.25% crystal violet in 20% methanol for 15 min. The excess crystal violet stain was rinsed with distilled water for 4-5 times and air-dried. Glacial acetic acid (10%) in Milli-Q water was added to extract the crystal violet stain. The absorbance was then measured at 595 nm using a microplate reader (Tecan Infinite® 200 Pro, Switzerland).

EGFR = EGFR (Homo sapiens, UniProt P00533); test: TR-FRET EGFR ligand binding assay (competitive displacement of biotin-EGF); design: purchased PerkinElmer
Chain of EGFR (P00533 25-645 limits assumed): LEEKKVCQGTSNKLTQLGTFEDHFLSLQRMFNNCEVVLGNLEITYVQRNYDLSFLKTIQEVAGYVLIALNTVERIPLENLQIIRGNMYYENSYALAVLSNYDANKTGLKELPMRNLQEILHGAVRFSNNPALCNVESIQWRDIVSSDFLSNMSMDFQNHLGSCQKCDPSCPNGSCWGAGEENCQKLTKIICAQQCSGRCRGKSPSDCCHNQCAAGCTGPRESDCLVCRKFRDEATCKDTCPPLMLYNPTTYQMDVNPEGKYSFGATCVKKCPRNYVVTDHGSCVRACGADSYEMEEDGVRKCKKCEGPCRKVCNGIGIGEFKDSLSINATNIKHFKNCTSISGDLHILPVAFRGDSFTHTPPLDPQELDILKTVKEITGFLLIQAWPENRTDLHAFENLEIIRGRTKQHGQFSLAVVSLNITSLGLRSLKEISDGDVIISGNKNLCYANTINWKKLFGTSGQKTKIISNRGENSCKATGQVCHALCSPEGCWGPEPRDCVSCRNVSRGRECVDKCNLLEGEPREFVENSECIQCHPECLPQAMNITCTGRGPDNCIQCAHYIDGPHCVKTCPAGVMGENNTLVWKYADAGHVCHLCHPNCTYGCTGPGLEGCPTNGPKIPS
Protocol: TR-FRET ratio was measured using a microplate reader in dual emission mode (Excitation: 340 nm, emission: 665 nm and 615 nm) (Cytation 1, US). […] (SEQ ID NO:11) or roseltide rT7 with an amino acid sequence of […] (SEQ ID NO:17) were used as negative control.

[2] = tested on: STZ-induced diabetic C57BL/6 mice; test: Full-thickness splinted excisional wound healing in streptozotocin-induced diabetic C57BL/6 mice; type: in vivo, mouse; settings: 1 nmol/wound topical, five consecutive days
Protocol: (§1) Full-thickness 5-mm splinted excisional wounding of mice was performed. Briefly, mice were anesthetized using an intraperitoneal injection of sodium pentobarbital (50 mg kg^−1). The hair of the back was shaved with an electric clipper followed by a depilatory cream. Using a 5-mm-diameter sterile biopsy punch, symmetrical full-thickness excisional wounds were created. Splints were placed around the wound using adhesive glue and secured with four interrupted sutures. The wounds and splints were covered with Tegaderm (3M, US). At indicated days within the 14 days post-injury course, wound diameters were measured. The size of wound was calculated from the average of two diameter measurements along the x and y axis.
Diabetes was induced into C57BL/6 mice by two intraperitoneal injection (80 mg/kg) of STZ at day 1 and 5. Starting from day 8, blood glucose was monitored regularly for two weeks. […] Blood glucose was also monitored at day 14 post-injury to ensure the mice are diabetic.

physchem = settings: buffer
Protocol: (§3) Samples were collected at various time points.
(§4) All collected samples from various stability assays were analyzed by RP-HPLC with a linear gradient of mobile phase A (0.05% TFA/H2O) and mobile phase B (0.05% TFA/ACN) on aeris peptide XB-C18 column (Phenomenex, US). The resulting peaks were collected and identified by MALDI-TOF MS. The results were expressed as percentage of initial concentration using the peak area of the HPLC profile.

[3] = tested on: pepsin, trypsin, pronase, human neutrophil elastase; test: in vitro
Protocol: as §3, §4

[4] = Heat stability (100° C., RP-HPLC); type: physicochemical
Protocol: Samples were collected at various time points (0, 30, 60, and 120 min).

c-Jun = test: Gene expression analysis (qPCR) of c-Jun in HaCaT cells; type: cell-based, human; settings: 2 h treatment
Protocol: (§2) Total RNA was extracted from HaCaT and primary human keratinocytes using PureLink™ RNA mini kit (Thermo Fisher Scientific, US). First-strand cDNA was synthesised from 600 ng of total RNA using SuperScript™ II Reverse Transcriptase and Oligo(dT)12-18 (Thermo Fisher Scientific, US) according to the manufacturer's instructions. Quantitative PCR (qPCR) was performed with iTaq Universal SYBR Green Supermix (Bio-Rad, US) on a CFX96 Touch Real-Time PCR Detection System (Bio-Rad, US) for 40 cycles. PCR reaction (20 μL): 3 μL cDNA, 1 μL primer mix (10 μM), 6 μL DEPC-treated water and 10 μL mastermix. […] GAPDH was used as a housekeeping gene for normalization. Fold changes of gene expressions with c-fos and c-Jun were calculated using the 2^−ΔΔCT method.

newborn ICR mice = test: Newborn mice model for incisor eruption; type: in vivo, mouse; settings: 3 mg/kg subcutaneous, five consecutive days; saline control 153 h
Protocol: ICR mice were obtained from Vital Rital Laboratories (Beijing, China). […] All experiments were approved and performed in accordance with the institutional guidelines of the Experimental Animal Center of the Chinese Academy of Medical Science (Beijing, China). Subcutaneous injections were made for five consecutive days in the nape of the neck of the newborn mice starting from the day of birth (day 0). […] Incisor eruption was recorded daily by visual inspection. Incisor eruption was defined as the time at which a given tooth first pierced the oral epithelium.

HUVEC-CS cells = test: Endothelial tube formation assay; type: cell-based; settings: data not shown
Protocol: Endothelial tube formation assay was performed using a μ-slide (ibidi, Germany). Briefly, 10 μL of gel matrix (BD Matrigel™ Basement Membrane Matrix) was casted onto each μ-slide well and left to solidify. […] After incubation for 2 h, the wells were photographed using inverted phase-contrast microscope. Images were analyzed for the numbering of branching points using the Wimasis image analysis platform.

C57BL/6 mice = test: Full-thickness splinted excisional wound healing in C57BL/6 mice; type: in vivo, mouse; settings: topical, three consecutive days; bleogen pB1 10 nmol/wound, EGF 1 nmol/wound; vs saline
Protocol: C57BL/6 mice were obtained from Vital Rital Laboratories (Beijing, China). […] All experiments were approved and performed in accordance with the institutional guidelines of the Experimental Animal Center of the Chinese Academy of Medical Science (Beijing, China).
as §1
Full-thickness 5 mm splinted excisional wounding of mice was performed on C57BL/6 mice as described above.

HaCaT cells [5] = test: Cell migration scratch assay; type: cell-based, human; settings: data not shown
Protocol: Cell migration was monitored using the scratch assay. Briefly, HaCaT cells were seeded into 2 well silicone inserts with a defined gap of 500 μm (ibidi, Germany). […] After incubation for 8 h, the wells were photographed using inverted phase-contrast microscope. Images were analyzed for the percentage of cell-free area using the Wimasis image analysis platform.

c-fos = test: Gene expression analysis (qPCR) of c-fos in HaCaT cells; type: cell-based, human; settings: 2 h treatment
Protocol: as §2

[6] = tested on: pepsin, trypsin, pronase, human neutrophil elastase; test: Proteolytic stability against a panel of proteases; settings: disulfide bridges reduced and S-alkylated by iodoacetamide
Protocol: as §3, §4

CC[C@H](C)[C@@H]1NC(=O)[C@H](CCC(=O)O)NC(=O)[C@H]([C@@H](C)O)NC(=O)[C@@H]2CSSC[C@@H]3NC(=O)[C@H](Cc4ccccc4)NC(=O)[C@H](CC(N)=O)NC(=O)[C@H](CO)NC(=O)[C@H](CSSC[C@H](NC(=O)[C@@H](N)CCC(N)=O)C(=O)N[C@@H](CCCCN)C(=O)N4CCC[C@H]4C(=O)N[C@@H](CC(N)=O)C(=O)NCC(=O)N[C@@H](C)C(=O)N[C@@H](CCCCN)C(=O)N2)NC(=O)[C@H](CSSC[C@@H](C(=O)N[C@@H](C)C(=O)N[C@@H](CC(N)=O)C(=O)N[C@@H](CCCNC(=N)N)C(=O)O)NC(=O)[C@H]([C@@H](C)O)NC(=O)CNC(=O)[C@H](CO)NC(=O)[C@@H](CCCCN)NC(=O)[C@H](CCC(N)=O)NC(=O)CNC(=O)[C@H](C)NC(=O)[C@H](Cc2ccc(O)cc2)NC(=O)[C@H](CCCNC(=N)N)NC(=O)[C@H](CC(C)C)NC3=O)NC(=O)[C@@H]2CCCN2C(=O)[C@@H]2CCCN2C(=O)[C@H]([C@@H](C)CC)NC(=O)[C@H](CO)NC1=O [[K29k]pB1]
mitogenic effect compared with bleogen pB1 (HaCaT cells [1]; 72 h): more mitogenic than bleogen pB1 | EGFR dependence of proliferative/mitogenic effect (HaCaT cells [1]): EGFR-dependent | EGFR affinity / EGF-like biological activity compared with bleogen pB1 (EGFR displacement) (EGFR): higher affinity than bleogen pB1 | potency relative to bleogen pB1 (fold more potent) (EGFR): approximately 60 fold | IC50 (EGFR; TR-FRET, mean±S.D., three independent experiments, read-out: IC50, displacement of biotin-EGF from EGFR): 27 ± 0.05 nM | EGFR affinity / EGF-like biological activity compared with bleogen pB1 (EGFR displacement) (EGFR; listed as K29k pB1): increased EGF-like biological activities | potency relative to bleogen pB1 (fold more potent) (EGFR; listed as K29k pB1): 60 fold | wound closure compared with EGF and bleogen pB1 in STZ-diabetic mice [2]: at a similar rate as EGF, and much faster than bleogen pB1 | wound healing rate vs vehicle control in STZ-induced diabetic mice [2]: healed at a significantly faster rate starting from day 4 post-injury | wound closure compared with EGF and bleogen pB1 in STZ-diabetic mice ([2]; listed as K29k pB1): comparable | half-life at 0.1 M (physchem): > 8.33 h | half-life at 0.1 M [3]: > 8.33 h | half-life at 0.1 M [4]: > 8.33 h

COc1cc2ncnc(Nc3cccc(Cl)c3)c2cc1OC [AG1478, reference compound]
effect of co-incubation on bleogen pB1-induced HaCaT cell proliferation (HaCaT cells [1]; serum-free medium, 72 h): substantially inhibited

N#CC(=C(/N)Sc1ccccc1N)/C(C#N)=C(\N)Sc1ccccc1N [U0126, reference compound]
effect of co-incubation on bleogen pB1-induced HaCaT cell proliferation (HaCaT cells [1]): substantially inhibited

EGF: epidermal growth factor, SEQ ID NO:10, positive control
mRNA expression of c-Jun (c-Jun): significantly upregulate | wound healing rate vs vehicle control in STZ-induced diabetic mice [2]: healed at a significantly faster rate starting from day 4 post-injury | time of incisor eruption in newborn mice (newborn ICR mice): 100 h | endothelial cell tube formation (HUVEC-CS cells): accelerate | wound healing, full-thickness excision wound model in C57 mice (C57BL/6 mice): accelerated wound healing from day 3 to day 11 | HaCaT cell migration (HaCaT cells [5]): accelerate | mRNA expression of c-fos (c-fos): significantly upregulate

CC[C@H](C)[C@@H]1NC(=O)[C@H](CCC(=O)O)NC(=O)[C@H]([C@@H](C)O)NC(=O)[C@@H]2CSSC[C@@H]3NC(=O)[C@H](Cc4ccccc4)NC(=O)[C@H](CC(N)=O)NC(=O)[C@H](CO)NC(=O)[C@H](CSSC[C@H](NC(=O)[C@@H](N)CCC(N)=O)C(=O)N[C@@H](CCCCN)C(=O)N4CCC[C@H]4C(=O)N[C@@H](CC(N)=O)C(=O)NCC(=O)N[C@@H](C)C(=O)N[C@@H](CCCCN)C(=O)N2)NC(=O)[C@H](CSSC[C@@H](C(=O)N[C@@H](C)C(=O)N[C@@H](CC(N)=O)C(=O)N[C@@H](CCCNC(=N)N)C(=O)O)NC(=O)[C@H]([C@@H](C)O)NC(=O)CNC(=O)[C@H](CO)NC(=O)[C@H](CCCCN)NC(=O)[C@H](CCC(N)=O)NC(=O)CNC(=O)[C@H](C)NC(=O)[C@@H](Cc2ccc(O)cc2)NC(=O)[C@H](CCCNC(=N)N)NC(=O)[C@H](CC(C)C)NC3=O)NC(=O)[C@@H]2CCCN2C(=O)[C@@H]2CCCN2C(=O)[C@H]([C@@H](C)CC)NC(=O)[C@H](CO)NC1=O [[Y25y]pB1]
mitogenic effect compared with bleogen pB1 (HaCaT cells [1]; 72 h): more mitogenic than bleogen pB1 | EGFR dependence of proliferative/mitogenic effect (HaCaT cells [1]): EGFR-dependent | EGFR affinity / EGF-like biological activity compared with bleogen pB1 (EGFR displacement) (EGFR): higher affinity than bleogen pB1 | IC50 (EGFR): 580 ± 0.089 nM | EGFR affinity / EGF-like biological activity compared with bleogen pB1 (EGFR displacement) (EGFR; listed as Y25y pB1): increased EGF-like biological activities

CC[C@H](C)[C@H](NC(=O)[C@H](CCC(=O)O)NC(=O)[C@@H](NC(=O)[C@H](CSCC(N)=O)NC(=O)[C@H](CCCCN)NC(=O)[C@H](C)NC(=O)CNC(=O)[C@H](CC(N)=O)NC(=O)[C@@H]1CCCN1C(=O)[C@H](CCCCN)NC(=O)[C@H](CSCC(N)=O)NC(=O)[C@@H](N)CCC(N)=O)[C@@H](C)O)C(=O)N[C@@H](CO)C(=O)N[C@H](C(=O)N1CCC[C@H]1C(=O)N1CCC[C@H]1C(=O)N[C@@H](CSCC(N)=O)C(=O)N[C@@H](CSCC(N)=O)C(=O)N[C@@H](CO)C(=O)N[C@@H](CC(N)=O)C(=O)N[C@@H](Cc1ccccc1)C(=O)N[C@@H](CSCC(N)=O)C(=O)N[C@@H](CC(C)C)C(=O)N[C@@H](CCCNC(=N)N)C(=O)N[C@@H](Cc1ccc(O)cc1)C(=O)N[C@@H](C)C(=O)NCC(=O)N[C@@H](CCC(N)=O)C(=O)N[C@@H](CCCCN)C(=O)N[C@@H](CO)C(=O)NCC(=O)N[C@H](C(=O)N[C@@H](CSCC(N)=O)C(=O)N[C@@H](C)C(=O)N[C@@H](CC(N)=O)C(=O)N[C@@H](CCCNC(=N)N)C(=O)O)[C@@H](C)O)[C@@H](C)CC [S-alkylated bleogen pB1, reference compound]
degradation by proteases (time) [6]: within a couple of minutes

NCESGTSCIPGAQHNCCSGVCVPIVTIFYGVCY (listed as Achyranthes bidentata) [aB1, reference compound]
HaCaT cell proliferation, concentration up to which not active (HaCaT cells [1]; negative control): > 10 µM
